{
  "source": "patent US6583150B1",
  "about": "“Pharmaceutical composition based on polyaromatic compounds” (Laboratorie L. Lafon, priority 1999, dated 2003)",
  "key": {"[1]": {"system": "U-373MG", "experiment": "MTT cytotoxicity test, U-373MG", "assay_type": "cell-based", "conditions": "Homo sapiens, U373 MG, U-373MG glioblastoma, 72 hours, read-out: concentrations flanking the IC50", "procedure": "(§1) The influence of the compounds of formulae I and II on neoplastic cells was evaluated using the MTT calorimetric test. The principle of the MTT test is based on the mitochondrial reduction by metabolically active live cells of the yellow-colored product MTT (3-(4,5-dimethylthiazol-2-yl)-2,5-diphenyltetrazolium bromide) to a blue-colored product, formazan. The amount of formazan thus obtained is directly proportional to the amount of live cells present in the culture well(s). This amount of formazan is measured by spectrophotometry.\n(§2) The cell lines are maintained in monolayer culture at 37° C. in stoppered culture dishes containing 25 MM HEPES MEM (Minimum Essential Medium) base medium. This medium, which is suitable for growing a range of varied diploid or primary mammalian cells, is then supplemented: […]\n(§3) with a an amount of 5% FCS (Fetal Calf Serum) decomplemented at 56° C. for 1 hour, with 0.6 mg/mL of L-glutamine, with 200 IU/mL of penicillin, with […] of streptomycin, with 0.1 mg/mL of gentamicin.\n(§4) The 12 human cancer cell lines used were obtained from the American Type Culture Collection (ATCC, Rockville, Md., USA). These 12 cell lines are:\n(§5) U-373MG (code ATCC: HTB-17) and U-87MG (code ATCC: HTB-14) which are two glioblastomas, Experimentally: 100 μl of a cell suspension containing 200 000 to 50 000 (depending on the cell type used) cells/mL of culture medium are inoculated in flat-bottomed 96-well multi-well plates and are incubated at 37° C. under an atmosphere comprising 5% CO2 and 70% humidity. […] The intensity of the resulting blue coloration, and thus of the conversion of the yellow MTT product into blue formazan by the cells that are still alive at the end of the experiment is quantified by spectrophotometry using a DYNATECH IMMUNOASSAY SYSTEM machine at wavelengths of 570 nm and 630 nm corresponding, respectively, to the maximum absorption wavelengths of formazan and to the background noise. […]"}, "[2]": {"experiment": "Determination of the maximum tolerated dose (MTD)", "assay_type": "in vivo", "conditions": "mouse, in vivo, ip; single intraperitoneal administration, survival over 14 days, B6D2F1/Jico mice", "procedure": "The evaluation of the maximum tolerated dose was carried out on 4- to 6-week-old B6D2F1/Jico mice. […] The value of the MTD (expressed in mg/kg) is determined from observing the survival rate of the animals over a period of 14 days after a single administration of the product under consideration. The change in the weight of the animals is also monitored over this period."}, "[3]": {"system": "U-87MG", "experiment": "MTT cytotoxicity test, U-87MG", "assay_type": "cell-based", "conditions": "Homo sapiens, U-87MG glioblastoma, 72 hours, read-out: concentrations flanking the IC50", "procedure": "as §1, §2, §3, §4, §5"}, "[4]": {"system": "A549", "experiment": "MTT cytotoxicity test, A549", "assay_type": "cell-based", "conditions": "Homo sapiens, A549 non-small-cell lung cancer, 72 hours, read-out: concentrations flanking the IC50", "procedure": "as §1, §2, §3\nThe 12 human cancer cell lines used were obtained from the American Type Culture Collection (ATCC, Rockville, Md., USA). These 12 cell lines are: […]"}, "[5]": {"system": "12 human tumor lines: U-87MG, U-373MG, SW 1088, T24, J82, HCT-15, LoVo, MCF7, T-47D, A549, A-427 and PC-3", "experiment": "MTT cytotoxicity test, panel of the 12 human tumor lines", "assay_type": "cell-based", "conditions": "Homo sapiens, read-out: average IC50", "procedure": "as §1, §2, §3, §4\nU-373MG (code ATCC: HTB-17) and U-87MG (code ATCC: HTB-14) which are two glioblastomas, SW1088 (code ATCC: HTB-12) which is an astrocytoma, A549 (code ATCC: CCL-185) and A-427 (code ATCC: HTB-53) which are two non-small-cell lung cancers, HCT-15 (code ATCC: CCL-225) and LoVo (code ATCC: CCL-229) which are two colorectal cancers, T-47D (code ATCC: HTB-133) and MCF7 (code ATCC: HTB-22) which are two breast cancers, J82 (code ATCC: HTB-1) and T24 (code ATCC: HTB-4) which are two bladder cancers, PC-3 (code ATCC: CRL-1435) which is a prostate cancer.\nExperimentally: 100 μl of a cell suspension containing 200 000 to 50 000 (depending on the cell type used) cells/mL of culture medium are inoculated in flat-bottomed 96-well multi-well plates and are incubated at 37° C. under an atmosphere comprising 5% CO2 and 70% humidity. After incubating for 24 hours, the culture medium is replaced with 100 μl of fresh medium containing either the various test compounds at concentrations ranging from 10^−5 to 10^−10 M or the solvent used to dissolve the test products (control condition). After incubating for 72 hours under the above conditions, the culture medium is replaced with 100 μl of a yellowish solution of MTT dissolved at a rate of 1 mg/mL in RPMI 1640. The microplates are reincubated for 3 hours at 37° C. and then centrifuged for 10 minutes at 400×g. The yellowish solution of MTT is removed and the blue formazan crystals formed at the cellular level are dissolved in 100 μl of DMSO. The microplates are then agitated for 5 minutes. The intensity of the resulting blue coloration, and thus of the conversion of the yellow MTT product into blue formazan by the cells that are still alive at the end of the experiment is quantified by spectrophotometry using a DYNATECH IMMUNOASSAY SYSTEM machine at wavelengths of 570 nm and 630 nm corresponding, respectively, to the maximum absorption wavelengths of formazan and to the background noise. Software built into the spectrophotometer calculates the average optical density values and also the standard deviation (Std. Dev.) and standard error of mean (SEM) values.\nThe inhibitory activity on the cell growth of the compounds of formula I and of formula II on the different tumor cell lines was compared with that of the natural product meridine (CRL 8348). All of the compounds of formula I and of formula II show significant inhibitory activity on the cell proliferation of the 12 human tumor lines: U-87MG, U-373MG, SW 1088, T24, J82, HCT-15, LoVo, MCF7, T-47D, A549, A-427 and PC-3 with an inhibitory concentration 50 (IC50) which is between 10^−6 M and 10^−10M, depending on the compounds and the tumor lines tested. By way of example, the values of the concentrations flanking the IC50 which are obtained on the various cell lines are given in table II: […]"}},
  "data": [
    {"compound": "COc1ccnc2c1C(=O)c1c(-c3ccccc3NC(=O)C(F)(F)F)ccnc1C2=O", "note": "[CRL 8275, 6-Methoxy-4-(2-trifluoroacetamidophenyl)pyrido-[3,2-g]quinoline-5,10-dione]", "values": [
      {"measurement": "IC50", "setting": "[1]", "value": "< 0.1", "unit": "nM"},
      {"measurement": "MTD at 14 days", "setting": "[2]", "value": 80, "unit": "mg/kg"},
      {"measurement": "IC50", "setting": "[3]", "value": "< 0.1", "unit": "nM"},
      {"measurement": "IC50", "setting": "[4]", "value": "< 0.1", "unit": "nM"},
      {"measurement": "IC50", "setting": "[5]", "value": 2.3, "unit": "nM"}
    ]}
  ]
}
